# How the values were obtained:
# S. aureus DNA gyrase = target: T1, S. aureus DNA gyrase (Staphylococcus aureus, UniProt P0A0K8+P20831); experiment: S. aureus DNA gyrase supercoiling inhibition assay; type: biochemical; conditions: relaxed pBR322, 37 °C, 30 min, agarose gel
# T1 construct: purchased Inspiralis
# Procedure: The assay was conducted using an S. aureus gyrase supercoiling assay kit from Inspiralis. In general, relaxed bacterial plasmid (pBR322), S. aureus gyrase, and different concentrations of TPA-1 were mixed and incubated at 37 °C for 30 min. The mixtures were then quenched and subjected to electrophoresis (1% agarose gel, 75 V, 2 h). The gel image was captured with the Bio-Rad ChemiDoc imaging system.
# planktonic P. aeruginosa = experiment: Photodynamic eradication of planktonic bacteria; type: cell-based, Pseudomonas aeruginosa; conditions: 2 μM, 600 nm (60 mW/cm^2)
# Procedure: (§1) For planktonic bacteria, an overnight culture of S. aureus or P. aeruginosa was diluted 100 times in TSB and grown to OD = 1. The bacteria cultures were then diluted to […] in PBS. TPA-1 (2 μM) was added to the diluted cultures and incubated under darkness for 20 min at 30 °C. Bacterial cultures of 200 μL were transferred to the wells of a 96-well plate. The plate was irradiated by 600 nm light (60 mW/cm^2) for 30 and 45 min. Then, the bacterial cultures were serially diluted, and the number of viable bacteria was counted using the plate counting method.
# S. aureus biofilm = experiment: Photodynamic eradication of biofilm bacteria; type: cell-based, Staphylococcus aureus; conditions: light irradiation at 600 nm for 45 min
# Procedure: For biofilm bacteria, overnight culture of S. aureus or P. aeruginosa was diluted to 1 × 10^5 CFU/mL in TSB (with 1% glucose). Portion of 100 μL of the diluted bacteria culture was added to the wells of a 96-well plate. The plate was incubated under darkness for 24 h at 37 °C. Then, the planktonic bacterial suspensions were removed from the wells. The biofilms were washed with PBS (3 times) to remove any remaining planktonic bacteria. Different concentrations of TPA-1 were dissolved in PBS. TPA-1 solution was added to the biofilms (120 μL for S.aureus, 150 μL for P.aeruginosa). After 20 min of incubation under darkness at 30 °C, the biofilms were kept in the dark or irradiated by 600 nm light (60 mW/cm^2) for 15, 30, and 45 min. After that, the TPA-1 solution was replaced by 120 μL of PBS. The biofilm was then suspended in PBS by scratching, followed by sonication (5 min, ≤42 kHz) and vortex (5 min, 950 rpm). The number of viable bacteria was determined by the plate counting method. All experiments were carried out in triplicate.
# S. aureus mature biofilm = S. aureus mature biofilm eradication assay in the dark; type: cell-based, Staphylococcus aureus; conditions: 24 h
# Procedure: For biofilm eradication assay, overnight culture of S. aureus in TSB under darkness was diluted to 1 × 10^5 CFU/mL in TSB (with 1% glucose). 100 μL of the diluted culture was transferred to each well of a 96-well plate. The plate was kept at 37 °C for 24 h under darkness to form mature biofilms. The medium was removed, and the biofilms were washed with 200 μL of PBS (3 times). 100 μL of the premixed TPA-1 solutions in TSB (with 1% glucose) were added to the wells. The plate was further incubated for 24 h under darkness and subjected to the crystal violet assay as stated in the biofilm inhibition assay. The biofilm survival rate (%) was calculated as (ODTPA-1 – ODblank)/(ODmedium – ODblank) × 100% where ODTPA-1, ODmedium, and ODblank were the absorbances of the wells with bacteria treated TPA-1, with bacteria without treatment and with medium only, respectively. The experiment was performed in triplicate.
# [1] = Log P, 1-octanol/water partition; type: physicochemical; conditions: 1-octanol/water (1:1)
# Procedure: The log P values of TPA compounds were obtained according to previously reported methods.[66] 1-octanol was first presaturated with water. Equal volume and concentration of TPA-NC-1, TPA-0, and TPA-1 were added to a 1-octanol/water (1:1) mixture and vortexed for 1 min. The mixture was then centrifuged for 5 min at 13,500 rpm. After that, the absorptions of the compound in the 1-octanol and water phases were measured. The concentrations of the compound in both phases were calculated by using the absorption calibration curve of the corresponding compound. Log P = log (concentration of the compound in 1-octanol/concentration of the compound in water).
# planktonic S. aureus = experiment: Photodynamic eradication of planktonic bacteria; type: cell-based, Staphylococcus aureus; conditions: 2 μM, 600 nm (60 mW/cm^2)
# Procedure: as §1
# MRSA (ATCC 43300) = experiment: Wound infection mouse model, MRSA biofilm; type: in vivo; conditions: mice, topical 90 μM, 600 nm 15 min, every 24 h for 4 days (TPA-1 + L)
# Procedure: All in vivo experiments were approved by the Department of Science and Technology of Zhejiang Province (SYXK(Zhejiang)2021-0043). Female BALB/c mice (10–12 weeks old) were kept in 12 h light and 12 h dark cycle with access to free food and water for 7 days before and throughout the experiment. The backs of the mice were shaved and disinfected with iodine. A full-thickness circular wound (7 mm in diameter) was then created at the back of the mice. The mice were allowed to recover for 24 h after surgery to prevent sepsis.[65] Ten μL of 1× 10^8 CFU/mL MRSA (ATCC 43300) or P. aeruginosa (ATCC 27853) in saline was added to the wound. The wound was covered with an adhesive dressing for 24 h of infection. Next, the mice were randomly divided into four groups: (1) 50 μL TPA-1 (90 μM) with 600 nm light irradiation (60 mW/cm^2) for 15 min, (2) 50 μL TPA-1 (90 μM) in dark, (3) 50 μL saline with 600 nm light irradiation (60 mW/cm^2) for 15 min, and (4) 50 μL saline in dark. For light irradiation groups, TPA-1 and saline were incubated on the wound for 10 min before irradiation. The treatment was sustained for 4 days. The wound size and body weight of the mice were recorded every day. On day 6, the mice were euthanatized, and the wound tissue was collected. […] The other half of the tissue was homogenized, and the number of viable bacteria was measured by the plate counting method.
# [2] = Light toxicity on HFF-1 cells (MTT after PDT); type: cell-based; conditions: human, 600 nm light irradiation for 45 min
# Procedure: HFF-1 cells were seeded in a 96-well plate with a density of 10,000 cells/well for 12 h at 37 °C in darkness. Different concentrations of TPA-1 were added to the cell culture medium and incubated for 20 min at 37 °C in darkness. The cells were then incubated in the dark or irradiated by 600 nm light for 45 min. The cell viability was then evaluated using the MTT assay, which was described in the cytotoxicity assay.
# T1 sequence (P20831 whole entry): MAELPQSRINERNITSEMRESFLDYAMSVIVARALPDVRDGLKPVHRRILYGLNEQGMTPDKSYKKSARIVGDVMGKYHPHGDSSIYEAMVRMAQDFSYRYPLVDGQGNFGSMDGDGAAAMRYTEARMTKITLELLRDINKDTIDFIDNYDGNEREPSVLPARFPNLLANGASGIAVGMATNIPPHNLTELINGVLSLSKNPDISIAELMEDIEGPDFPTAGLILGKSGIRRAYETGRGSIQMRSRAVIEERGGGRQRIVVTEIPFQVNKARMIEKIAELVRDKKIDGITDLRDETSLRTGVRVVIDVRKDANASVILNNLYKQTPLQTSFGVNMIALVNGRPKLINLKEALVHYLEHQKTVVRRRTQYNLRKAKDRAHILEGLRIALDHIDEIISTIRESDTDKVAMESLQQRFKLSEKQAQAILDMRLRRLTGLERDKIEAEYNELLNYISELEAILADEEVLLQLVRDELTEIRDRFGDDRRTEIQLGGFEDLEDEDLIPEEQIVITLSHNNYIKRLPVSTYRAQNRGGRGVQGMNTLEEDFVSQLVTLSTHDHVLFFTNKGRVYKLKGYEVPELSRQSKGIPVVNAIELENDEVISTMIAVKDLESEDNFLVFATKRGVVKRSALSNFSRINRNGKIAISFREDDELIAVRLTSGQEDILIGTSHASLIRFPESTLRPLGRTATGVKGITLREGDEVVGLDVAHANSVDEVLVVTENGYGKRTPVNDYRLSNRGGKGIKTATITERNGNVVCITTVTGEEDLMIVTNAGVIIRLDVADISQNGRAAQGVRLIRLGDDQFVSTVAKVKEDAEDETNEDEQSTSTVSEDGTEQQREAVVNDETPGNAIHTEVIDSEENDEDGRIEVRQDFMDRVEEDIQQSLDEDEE
# T1 sequence (P0A0K8 whole entry): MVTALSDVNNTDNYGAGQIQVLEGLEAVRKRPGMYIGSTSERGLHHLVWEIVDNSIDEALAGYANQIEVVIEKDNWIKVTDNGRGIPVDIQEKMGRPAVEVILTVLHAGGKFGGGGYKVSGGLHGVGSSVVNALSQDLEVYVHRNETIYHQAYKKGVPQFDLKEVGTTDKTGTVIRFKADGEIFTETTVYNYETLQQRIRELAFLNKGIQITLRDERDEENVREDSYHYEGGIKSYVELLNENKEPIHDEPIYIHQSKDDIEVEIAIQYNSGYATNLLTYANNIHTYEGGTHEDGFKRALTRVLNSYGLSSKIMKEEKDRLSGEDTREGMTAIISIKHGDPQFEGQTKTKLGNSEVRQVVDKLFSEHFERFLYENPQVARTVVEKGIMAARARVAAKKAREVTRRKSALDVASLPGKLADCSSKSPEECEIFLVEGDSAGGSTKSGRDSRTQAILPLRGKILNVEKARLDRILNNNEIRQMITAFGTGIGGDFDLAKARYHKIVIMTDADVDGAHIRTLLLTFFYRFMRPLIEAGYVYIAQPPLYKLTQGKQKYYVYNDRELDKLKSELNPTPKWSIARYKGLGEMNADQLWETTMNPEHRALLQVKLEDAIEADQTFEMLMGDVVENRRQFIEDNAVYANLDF
structure (smiles),measurement,setting,value
C#CCC[n+]1c(/C=C/c2ccc(-c3ccc(N(c4ccc(OCCC[N+](C)(C)C)cc4)c4ccc(OCCC[N+](C)(C)C)cc4)cc3)s2)sc2ccccc21.[Br-].[Br-].[Br-] [TPA-1],concentration at which the supercoiled DNA band completely disappears,S. aureus DNA gyrase,25 µM
same,planktonic P. aeruginosa eradicated,planktonic P. aeruginosa; 30 min,99.96% ± 0.03%
same,planktonic P. aeruginosa log CFU/mL reduction,planktonic P. aeruginosa; 30 min,3.4 ± 0.2 log CFU/mL
same,planktonic P. aeruginosa eradicated,planktonic P. aeruginosa; 45 min,> 99.99%
same,planktonic P. aeruginosa log CFU/mL reduction,planktonic P. aeruginosa; 45 min,> 5 log CFU/mL
same,S. aureus biofilm log CFU/mL reduction,S. aureus biofilm,1.18 ± 0.05 log CFU/mL
same,S. aureus in the biofilm eradicated,S. aureus biofilm,92% ± 3%
same,eradication of mature S. aureus biofilms without light,S. aureus mature biofilm,only limited ability to eradicate mature biofilms
same,logP,[1],-1.6
same,planktonic S. aureus eradicated,planktonic S. aureus; 30 min,99.2% ± 0.7%
same,planktonic S. aureus log CFU/mL reduction,planktonic S. aureus; 30 min,2.2 ± 0.4 log CFU/mL
same,planktonic S. aureus eradicated,planktonic S. aureus; 45 min,> 99.99%
same,planktonic S. aureus log CFU/mL reduction,planktonic S. aureus; 45 min,> 5 log CFU/mL
same,MRSA eradicated in infected tissues,MRSA (ATCC 43300),96% ± 3%
same,MRSA log (CFU/mg tissue) reduction,MRSA (ATCC 43300),1.4 ± 0.6 log (CFU/mg tissue)
same,"viability at 45 min, 40 µM",[2],> 90%
